According to ChEMBL document CHEMBL4402583, “Rational Substitution of ε-Lysine for α-Lysine Enhances the Cell and Membrane Selectivity of Pore-Forming Melittin” (J Med Chem, 2020):
Converted amounts (≈) assume the structure as drawn. The source made the active and inactive calls. The rule behind the calls is not given here.

Legend:
Pseudomonas aeruginosa = test: Antibacterial activity against Pseudomonas aeruginosa assessed as reduction in bacterial growth incubated for 24 hrs by broth microdilution method; assay type: functional
Candida albicans = test: Antifungal activity against Candida albicans assessed as reduction in fungal growth incubated for 24 hrs by broth microdilution method; assay type: functional
Staphylococcus aureus [1] = test: Antibacterial activity against methicillin-sensitive Staphylococcus aureus assessed as reduction in bacterial growth incubated for 24 hrs by broth microdilution method; assay type: functional
Staphylococcus aureus [2] = test: Antibacterial activity against methicillin-resistance Staphylococcus aureus assessed as reduction in bacterial growth incubated for 24 hrs by broth microdilution method; assay type: functional
Enterococcus = test: Antibacterial activity against vancomycin-resistant Enterococcus assessed as reduction in bacterial growth incubated for 24 hrs by broth microdilution method; assay type: functional
Acinetobacter baumannii [3] = test: Antibacterial activity against multidrug-resistant Acinetobacter baumannii assessed as reduction in bacterial growth incubated for 24 hrs by broth microdilution method; assay type: functional
Enterobacteriaceae = test: Antibacterial activity against Carbapenem-Resistant Enterobacteriaceae assessed as reduction in bacterial growth incubated for 24 hrs by broth microdilution method; assay type: functional
[4] = Cytotoxicity against HDF cells assessed as cell viability at 500 ug/ml incubated for 24 hrs by MTS assay relative to control; assay type: cell-based; conditions: human, HDF cells (NHDF, human dermal fibroblasts); read-out: Activity
NHDF = test: Cytotoxicity against HDF cells assessed as truncation and reduction in cytoskeleton at 500 ug/ml incubated for 24 hrs by Alexa Fluor […] phalloidin-FITC/Hoescht dye staining based fluorescence microscopic analysis; assay type: cell-based; conditions: human
HaCaT = test: Cytotoxicity against human HaCaT cells assessed as truncation and reduction in cytoskeleton at 500 ug/ml incubated for 24 hrs by Alexa Fluor […] phalloidin-FITC/Hoescht dye staining based fluorescence microscopic analysis; assay type: cell-based
[5] = Hemolytic activity against human erythrocytes assessed as hemoglobin release incubated for 1 hr; assay type: ADME, cell-based, Erythrocyte; conditions: read-out: HD50
Enterococcus faecalis [6] = test: Antibacterial activity against vancomycin-resistant Enterococcus faecalis ATCC 29212 assessed as log10 reduction in bacterial viability at 2 to 4 times MIC incubated for 30 mins in MHB medium followed by reincubation on MH agar plate for 24 to 48 hrs by time kill kinetics analysis; assay type: functional
Enterococcus faecalis [7] = test: Antibacterial activity against vancomycin-resistant Enterococcus faecalis 1010 assessed as log10 reduction in bacterial viability at 2 to 4 times MIC incubated for 30 mins in MHB medium followed by reincubation on MH agar plate for 24 to 48 hrs by time kill kinetics analysis; assay type: functional
Enterococcus faecalis [8] = test: Antibacterial activity against vancomycin-resistant Enterococcus faecalis 1002 assessed as log10 reduction in bacterial viability at 2 to 4 times MIC incubated for 30 mins in MHB medium followed by reincubation on MH agar plate for 24 to 48 hrs by time kill kinetics analysis; assay type: functional
Acinetobacter baumannii [9] = test: Antibacterial activity against Acinetobacter baumannii 1001 assessed as reduction in bacterial viability at 2 or 4 times MIC incubated up to 24 hrs in MHB medium followed by reincubation on MH agar plate for 24 to 48 hrs by time kill kinetics assay; assay type: functional, organism-based
Escherichia coli [10] = test: Antibacterial activity against Escherichia coli 1004 assessed as reduction in bacterial viability at 2 or 4 times MIC incubated up to 24 hrs in MHB medium followed by reincubation on MH agar plate for 24 to 48 hrs by time kill kinetics assay; assay type: functional, organism-based
Klebsiella pneumoniae = test: Antibacterial activity against Klebsiella pneumoniae 1008 assessed as reduction in bacterial viability at 2 or 4 times MIC incubated up to 24 hrs in MHB medium followed by reincubation on MH agar plate for 24 to 48 hrs by time kill kinetics assay; assay type: functional, organism-based
Enterococcus faecalis [11] = test: Induction of pore formation in intact vancomycin-resistant Enterococcus faecalis ATCC 29212 cell membrane assessed as SG uptake at 2 times MIC by SG dye based fluorescence based assay; assay type: organism-based
Enterococcus faecalis [12] = test: Induction of pore formation in intact vancomycin-resistant Enterococcus faecalis 1002 cell membrane assessed as SG uptake at 2 times MIC by SG dye based fluorescence based assay; assay type: organism-based
Acinetobacter baumannii [13] = test: Induction of pore formation in intact Acinetobacter baumannii 1001 cell membrane assessed as SG uptake at 2 times MIC by SG dye based fluorescence based assay; assay type: organism-based
Escherichia coli [14] = test: Induction of pore formation in intact Escherichia coli 1004 cell membrane assessed as SG uptake at 2 times MIC by SG dye based fluorescence based assay; assay type: organism-based
Acinetobacter baumannii [15] = test: Antibacterial activity against Acinetobacter baumannii ATCC 19606 assessed as reduction in bacterial growth at sublethal concentrations measured after 20 serial passages by broth microdilution method; assay type: functional, organism-based; conditions: ATCC 19606 = CIP 70.34 = JCM 6841
Enterococcus faecalis [16] = test: Resistance index, ratio of MIC for vancomycin-resistant Enterococcus faecalis 1010 measured after 20 serial passages by broth microdilution method to MIC for vancomycin-resistant Enterococcus faecalis 1010 incubated for 24 hrs by broth microdilution method; assay type: functional
T-cell [17] = test: Immunogenicity in human PBL T cells assessed as increase in IL-2 production at 62.5 or 125 ug/ml incubated for 24 hrs by ELISA; assay type: ADME, cell-based
T-cell [18] = test: Immunogenicity in human PBL T cells assessed as increase in IL-4 production at 62.5 or 125 ug/ml incubated for 24 hrs by ELISA; assay type: ADME, cell-based
T-cell [19] = test: Immunogenicity in human PBL T cells assessed as increase in IL-5 production at 62.5 or 125 ug/ml incubated for 24 hrs by ELISA; assay type: ADME, cell-based
T-cell [20] = test: Immunogenicity in human PBL T cells assessed as increase in IFN-gamma production at 62.5 or 125 ug/ml incubated for 24 hrs by ELISA; assay type: ADME, cell-based
[21] = Stability of the compound in rabbit tear fluid measured after 2 hrs by UPLC-MS analysis; assay type: ADME, Oryctolagus cuniculus
[22] = Stability of the compound in rabbit tear fluids assessed as parent compound remaining measured after 4 hrs by UPLC-MS analysis; assay type: ADME, Oryctolagus cuniculus; conditions: tear fluid, read-out: Stability
Oryctolagus cuniculus [23] = test: Induction of reepithelialization in injured New Zealand white rabbit cornea assessed as wound healing at 0.3% administered topically for qid measured at day 1 post-injury by fluorescein sodium staining based microscopic imaging analysis (reference value: 89.9 +/- 2.9 %); assay type: organism-based; conditions: in vivo, topical_or_ocular
Oryctolagus cuniculus [24] = test: Induction of reepithelialization in injured New Zealand white rabbit cornea assessed as wound healing administered topically for qid measured at day 2 post-injury by fluorescein sodium staining based microscopic imaging analysis (reference value: 76.6 +/- 4.5 %); assay type: organism-based; conditions: in vivo, topical_or_ocular
Oryctolagus cuniculus [25] = test: Induction of reepithelialization in injured New Zealand white rabbit cornea assessed as wound healing administered topically for qid measured at day 3 post-injury by fluorescein sodium staining based microscopic imaging analysis (reference value: 63.9 +/- 5.3 %); assay type: organism-based; conditions: in vivo, topical_or_ocular
Oryctolagus cuniculus [26] = test: Induction of reepithelialization in injured New Zealand white rabbit cornea assessed as wound healing administered topically for qid measured at day 4 post-injury by fluorescein sodium staining based microscopic imaging analysis (reference value: 48.4 +/- 7.6 %); assay type: organism-based; conditions: in vivo, topical_or_ocular
Oryctolagus cuniculus [27] = test: Induction of reepithelialization in injured New Zealand white rabbit cornea assessed as wound healing administered topically for qid measured at day 5 post-injury by fluorescein sodium staining based microscopic imaging analysis (reference value: 39.8 +/- 6.2 %); assay type: organism-based; conditions: in vivo, topical_or_ocular
Oryctolagus cuniculus [28] = test: Induction of reepithelialization in injured New Zealand white rabbit cornea assessed as wound healing administered topically for qid measured at day 6 post-injury by fluorescein sodium staining based microscopic imaging analysis (reference value: 24.1 +/- 8.5 %); assay type: organism-based; conditions: in vivo, topical_or_ocular
Oryctolagus cuniculus [29] = test: Induction of reepithelialization in injured New Zealand white rabbit cornea assessed as wound healing administered topically for qid measured at day 7 post-injury by fluorescein sodium staining based microscopic imaging analysis (reference value: 8.6 %); assay type: organism-based; conditions: in vivo, topical_or_ocular
Oryctolagus cuniculus [30] = test: Induction of reepithelialization in injured New Zealand white rabbit cornea assessed as wound healing administered topically for qid measured at day 8 post-injury by fluorescein sodium staining based microscopic imaging analysis (reference value: 3.8 %); assay type: organism-based; conditions: in vivo, topical_or_ocular
Staphylococcus aureus [31] = test: In vivo antibacterial activity against Staphylococcus aureus ATCC 29213 infected in C57BL/6 mouse assessed as reduction in bacterial burden by measuring log10 CFU/cornea at 0.3% administered topically as two times on day 1, four times on day 2 and two times on day 3 measured at 48 hrs post-final dose by 10 fold serial dilution method (reference value: 6.5 +/- 0.7 log10CFU); assay type: functional

CC[C@H](C)[C@H](NC(=O)CN)C(=O)NCC(=O)N[C@@H](C)C(=O)N[C@H](C(=O)N[C@@H](CC(C)C)C(=O)NCCC[C@@H](CN)C(=O)N[C@H](C(=O)N[C@@H](CC(C)C)C(=O)N[C@H](C(=O)N[C@H](C(=O)NCC(=O)N[C@@H](CC(C)C)C(=O)N1CCC[C@H]1C(=O)N[C@@H](C)C(=O)N[C@@H](CC(C)C)C(=O)N[C@H](C(=O)N[C@@H](CO)C(=O)N[C@@H](Cc1c[nH]c2ccccc12)C(=O)N[C@H](C(=O)NCCC[C@@H](CN)C(=O)N[C@@H](CCCNC(=N)N)C(=O)N[C@@H](CCCCN)C(=O)N[C@@H](CCCNC(=N)N)C(=O)N[C@@H](CCC(N)=O)C(=O)N[C@@H](CCC(N)=O)C(N)=O)[C@@H](C)CC)[C@@H](C)CC)[C@@H](C)O)[C@@H](C)O)C(C)C)C(C)C
MIC (Pseudomonas aeruginosa): 8 to 64 µg/mL (≈ 2.81 to 22.5 µM) | MIC50 (Pseudomonas aeruginosa): 32 µg/mL (≈ 11.2 µM) | MIC (Candida albicans): 16 to 32 µg/mL (≈ 5.62 to 11.2 µM) | MIC50 (Candida albicans): 32 µg/mL (≈ 11.2 µM) | MIC (Staphylococcus aureus [1]): 16 to 128 µg/mL (≈ 5.62 to 45 µM) | MIC50 (Staphylococcus aureus [1]): 64 µg/mL (≈ 22.5 µM) | MIC50 (Staphylococcus aureus [2]): 64 µg/mL (≈ 22.5 µM) | MIC (Enterococcus): 4 to 16 µg/mL (≈ 1.41 to 5.62 µM) | MIC50 (Enterococcus): 8 µg/mL (≈ 2.81 µM) | MIC (Acinetobacter baumannii [3]): 2 to 8 µg/mL (≈ 0.703 to 2.81 µM) | MIC50 (Acinetobacter baumannii [3]): 4 µg/mL (≈ 1.41 µM) | MIC (Enterobacteriaceae): 4 to 64 µg/mL (≈ 1.41 to 22.5 µM) | MIC50 (Enterobacteriaceae): 8 µg/mL (≈ 2.81 µM) | viability at 24 h, 500 ug/ml [4]: 91.9% | Activity (NHDF): Toxic | Activity (HaCaT): Toxic | HC50 at 1 h [5]: 215 µg/mL | log(activity) (Enterococcus faecalis [6]): >5 | log(activity) (Enterococcus faecalis [7]): >5 | log(activity) (Enterococcus faecalis [8]): >5 | Activity (Acinetobacter baumannii [9]): Active | Activity (Escherichia coli [10]): Active | Activity (Klebsiella pneumoniae): Active | Activity (Enterococcus faecalis [11]): Active | Activity (Enterococcus faecalis [12]): Active | Activity (Acinetobacter baumannii [13]): Active | Activity (Escherichia coli [14]): Active | Activity (Acinetobacter baumannii [15]): Active | Ratio (Enterococcus faecalis [16]): 4 | Activity (T-cell [17]): Non-Toxic | Activity (T-cell [18]): Non-Toxic | Activity (T-cell [19]): Non-Toxic | Activity (T-cell [20]): Non-Toxic | Stability [21]: Stable | remaining at 4 h [22]: 90.3% | Activity (Oryctolagus cuniculus [23]): 83.4% | Activity (Oryctolagus cuniculus [24]): 60.3% | Activity (Oryctolagus cuniculus [25]): 44.9% | Activity (Oryctolagus cuniculus [26]): 33.1% | Activity (Oryctolagus cuniculus [27]): 21.7% | Activity (Oryctolagus cuniculus [28]): 14.7% | Activity (Oryctolagus cuniculus [29]): 4.6% | Activity (Oryctolagus cuniculus [30]): 2.9% | Activity (Staphylococcus aureus [31]): 3.9 log10CFU
